These results are taken from PubChem BioAssay (NCI).

Test systems include 786-0 renal; BT-549 breast; EKVX NSCLC; HL-60(TB) leukemia; HOP-62 NSCLC; KM12 colon; NCI-H460 lung; NCI-H522 lung; SK-MEL-5 melanoma; SR leukemia.
Holding throughout (assay): NCI anticancer screen, dose series, 48 h

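Assay format: 96-well plates, 48-hour exposure. TGI: concentration producing complete growth inhibition.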

Turning to `CC(=O)Oc1cccc2c1C(=O)C(Br)(Br)CCC2`, the TGI was determined as 11.4 µM with 786-0 renal; 4.19 µM in the assay with BT-549 breast; 26.7 µM in the assay with EKVX NSCLC; 6.51 µM in the assay on HL-60(TB) leukemia; 22 µM in the assay on HOP-62 NSCLC; 23.2 µM in the assay with KM12 colon. For the same compound, the TGI with NCI-H460 lung amounted to 43.6 µM; in the assay on NCI-H522 lung, 4.55 µM; with SK-MEL-5 melanoma it was 14.4 µM; with SR leukemia it was 8.19 µM.

As to `CN(C)CCNC(=O)c1cc([N+](=O)[O-])ccn1`, the TGI in the assay with 786-0 renal was above 100 µM; in the assay on BT-549 breast it was above 100 µM; with EKVX NSCLC it was above 100 µM; in the assay with HL-60(TB) leukemia, 46.4 µM; in the assay on HOP-62 NSCLC it was above 100 µM; with KM12 colon it was above 100 µM. Further, the TGI in the assay on NCI-H460 lung is above 100 µM; with NCI-H522 lung, 37.2 µM; with SK-MEL-5 melanoma, 41.5 µM; in the assay with SR leukemia it was above 100 µM.
